In patent US8748426B2, “Inhibitors of diacylglycerol acyl transferase” (Piramal Enterprises Limited, priority 2009, dated 2014):

Assays:
Swiss mice = test: Fat tolerance test (ftt) in mice; assay type: in vivo; details: 3 mg/kg, p.o.; olive oil load 10 mL/kg 30 min after treatment; AUC0-4h, vehicle group as 100%
Method: Swiss mice of age 4-5 weeks and body weight between 25-30 g were selected for study. After fasting for about 16 h, the animals were divided into three groups based on plasma triglyceride level with same mean and variation. Animals were administered with either vehicle [(1% tween 80 in 0.5% carboxy methylcellulose (CMC)]) or with compounds of the present invention (3 mg/kg, p.o.). Compounds of the present invention were prepared as suspension in 0.5% carboxy methylcellulose (CMC) with 1% tween 80. Olive oil (fat) load (10 mL/kg, p.o.) was given, 30 min after the treatment. Blood samples were collected at 1, 2, 3 and 4 h after the fat (olive oil) load. Plasma was separated and triglyceride level was measured using commercially available kits (diasys, Germany). Percentage reduction in area under curve (AUC0-4h) of the test compound was calculated by taking AUC0-4h of the vehicle group as 100%.

hDGAT1 = target: T1, hDGAT1 (Homo sapiens, UniProt O75907); test: In-vitro DGAT1 assay (14C oleoyl CoA, hDGAT1 microsomes from Sf9 cells); details: for inhibition at 1 µM: read-out: % Inhibition of hDGAT1
T1 sequence (O75907 1-488): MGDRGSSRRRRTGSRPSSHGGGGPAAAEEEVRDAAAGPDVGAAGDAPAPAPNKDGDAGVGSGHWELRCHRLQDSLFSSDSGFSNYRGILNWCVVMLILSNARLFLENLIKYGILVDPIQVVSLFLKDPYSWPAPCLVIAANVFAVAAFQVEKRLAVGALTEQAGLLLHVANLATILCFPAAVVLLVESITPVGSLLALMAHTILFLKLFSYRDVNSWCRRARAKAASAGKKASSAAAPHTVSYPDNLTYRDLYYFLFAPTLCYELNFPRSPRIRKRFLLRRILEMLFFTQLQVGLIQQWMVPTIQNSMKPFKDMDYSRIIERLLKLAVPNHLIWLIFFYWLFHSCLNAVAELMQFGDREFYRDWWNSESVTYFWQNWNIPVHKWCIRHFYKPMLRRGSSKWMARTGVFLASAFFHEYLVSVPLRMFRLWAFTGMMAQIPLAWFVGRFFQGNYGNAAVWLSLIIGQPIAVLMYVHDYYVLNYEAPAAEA

Row | SMILES | % Reduction (Plasma triglyceride) (Swiss mice) | inhibition at 1 µM (hDGAT1) | % Inhibition of hDGAT1 (hDGAT1; at 1 μM)
1 | CCCCCc1ccc(C(=O)Nc2ccc(-c3ccc4c(c3)C(=O)N([C@H](C(=O)O)C(C)C)C4)cc2)cc1 [Example 124, (S)-3-Methyl-2-(1-oxo-6-(4-(4-pentylbenzamido)phenyl)isoindolin-2-yl)butanoic acid] | ++ (>50% Reduction) | > 50% | 
2 | CC(C)[C@@H](C(=O)O)N1Cc2ccc(-c3ccc(NC(=O)c4cccc(Oc5ccccc5)c4)cc3)cc2C1=O [Example 148, (S)-3-Methyl-2-(1-oxo-6-(4-(3-phenoxybenzamido)phenyl)isoindolin-2-yl)butanoic acid] | ++ (>50% Reduction) | > 50% | 
3 | CC(C)[C@@H](C(=O)O)N1Cc2ccc(-c3ccc(NC(=O)c4ccc(Oc5ccccc5)cc4)cc3)cc2C1=O [Example 150, (S)-3-Methyl-2-(1-oxo-6-(4-(4-phenoxybenzamido)phenyl)isoindolin-2-yl)butanoic acid] | ++ (>50% Reduction) | > 50% | 
4 | CCCc1ccc(C(=O)Nc2ccc(-c3ccc4c(c3)C(=O)N([C@H](C(=O)O)C(C)C)C4)cc2)cc1 [Example 170, (S)-3-Methyl-2-(1-oxo-6-(4-(4-propylbenzamido)phenyl)isoindolin-2-yl)butanoic acid] | ++ (>50% Reduction) | > 50% | 
5 | CCCCCc1ccc(C(=O)Nc2ccc(-c3ccc4c(c3)C(=O)N([C@H](C(=O)O)C(C)C)C4)nc2)cc1 [Example 406, (S)-3-Methyl-2-(1-oxo-6-(5-(4-pentylbenzamido)pyridin-2-yl)isoindolin-2-yl)butanoic acid] | ++ (>50% Reduction) | > 50% | 
6 | CC(C)[C@@H](C(=O)O)N1Cc2ccc(-c3ccc(NC(=O)c4ccc(-c5ccccc5)cc4)cn3)cc2C1=O [Example 408, (S)-2-(6-(5-Biphenyl-4-ylcarboxamidopyridin-2-yl)-1-oxoisoindolin-2-yl)-3-methylbutanoic acid] | ++ (>50% Reduction) |  | ++ (>50% Inhibition)
7 | CC(C)[C@@H](C(=O)O)N1Cc2ccc(-c3ccc(NC(=O)c4ccc5ccccc5c4)cn3)cc2C1=O [Example 410, (S)-2-(6-(5-(2-Naphthamido)pyridin-2-yl)-1-oxoisoindolin-2-yl)-3-methylbutanoic acid] | ++ (>50% Reduction) | > 50% | 
